In patent US7442375B2, “Compositions of beta-defensin inducing agents” (Case Western Reserve University, priority 2002, dated 2008):
Like-named read-outs stand apart in the source and are kept apart here. Positions of bridges follow the written chain, without caps; N, C: chain ends. No end group written: not given here.

Columns and labels:
hBD-2 mRNA [1] = conditions: 1.7 mM in culture medium, epidermal cells; cited from earlier work
hBD-3 mRNA [2] = conditions: 1.7 mM in culture medium, epidermal cells; cited from earlier work
[3] = test system: epithelial beta defensin genes; conditions: appears to involve NF-kappaB/rel; cited from earlier work
hBD-1 mRNA = experiment: Real-time RT-PCR assay to quantify hBD mRNA in NHOEC; assay type: cell-based; conditions: normal human oral epithelium and cells; positive control of FIG. 3
Method: (§1) NHOEC monolayers were exposed to X4 HIV-1 strains B-HXB2 and B-NL4-3 or R5 strains B-93US142 and B-92US660 at an MOI of 0.01 infectious unit/cell. After 48 h, hBD-1, -2, and -3 mRNA expression was determined by real-time PCR. (a) Standard curves generated using the relationship of known number of input templates to the cycle threshold (i.e., PCR cycle number at which the mean fluorescence increases to 10 SD above baseline). Cycle threshold is directly proportional to the log of the input copy equivalents. Linear dynamic ranges and regression values are indicated. (b) Quantification of hBD mRNA in the presence and absence of HIV-1. (c) Comparison of hBD expression relative to the uninfected culture. PMA, phorbol myristate acetate, positive control. Results are representative of three independent experiments.
(§2) RNA was extracted from NHOEC monolayers post HIV-1 challenge [multiplicity of infection (MOI), 0.01 infectious unit/cell] using TRIzol according to the manufacturer's protocol (Invitrogen Life Technologies, Carlsbad, Calif., USA). Human keratin 5 RNA was used to normalize RNA content in each preparation. Intron spanning primers used and PCR conditions for these reactions have been described previously [Krisanaprakorkit et al., 1998 and 2000; Harder et al.]. Each 25-μl PCR mixture consisted of 125 ng RNA, primers (0.4 μM each), 0.4 mM dNTPs, 5 mM MgCl2, a mixture of reverse transcriptase and Taq DNA polymerase, 1 3 PCR buffer, RNase inhibitor (5 U), and SYBR Green dye diluted 1:2500 (Sigma, St. Louis, Mo., USA) as described [Weber et al.]. Standard curves were constructed using RNA generated by transcribing hBD-1, -2, or -3 plasmids using the RiboProbe in vitro transcription system (Promega, Madison, Wis., USA). Concentration of mRNAs was determined by spectrometry at 260 nm. […]
(§3) NHOEC monolayers were challenged with four different HIV-1 strains representing both viral bio-phenotypes (i.e., SI/X4, B-HXB2 and B-NL4-3; NSI/R5, B-93US142 and B-92US660) Forty-eight hours postinfection, hBD-1, -2, and -3 mRNA expression was measured by real-time PCR. […]

hBD-2 mRNA [4] = experiment: as above; assay type: cell-based; conditions: normal human oral epithelium and cells; positive control of FIG. 3
Method: as §1, §2, §3

hBD-3 mRNA [5] = experiment: as above; assay type: cell-based; conditions: normal human oral epithelium and cells; positive control of FIG. 3
Method: as §1, §2, §3

HIV-1 R5 B-93US142 = assay type: cell-based
Method: (§4) HIV-1 strains (X4 HXB2 and R5 93US142) were incubated in 10 mM PB with increasing concentrations of hBD and used to infect GHOST X4/R5 cells. (a) Qualitative determination of HIV-1 infection, measured by GFP fluorescence, in the absence (−C) and presence (+C) of virus preincubated in 10 mM PB. (b) Anti-HIV-1 activity of hBD in GHOST X4/R5 cells using fluorescence microscopy. (c) Anti-HIV-1 activity of hBD measured by RT activity in cell-free culture supernatant, relative to the positive control (i.e., HIV-1 infection in the absence of hBD). (d) Antiretroviral activity of hBD against CXCR4- and CCR5-tropic HIV-1 strains in three different environments: DMEM+10% FBS (complete medium); DMEM alone (Medium no FBS); 10 mM PB. Viruses were incubated with 20 μg/ml of each hBD for 1 h in each condition and used to infect CEM X4/R5 cells as described. Results are representative of three independent experiments.
(§5) HIV-1 isolates were incubated with increasing concentrations (5-40 μg/ml) of hBD-1, -2, and -3, in three different conditions: high salt complete medium (RPMI-1640 or DMEM supplemented with 10% fetal bovine serum, FBS); high salt medium in the absence of FBS; or low salt medium (10 mM phosphate buffer), 37° C. for 1 h. Respective mixtures were used to infect PBMC, Ghost X4/R5 or CEM X4/R5 cells at an MOI of […]. After 2 h incubation at 37° C., 5% CO2, cells were washed three times with phosphate-buffered saline (PBS) and cultured in complete medium for 48 h. In the case of Ghost X4/R5 cells, these were washed, resuspended in PBS, and analyzed by fluorescence microscopy for GFP expression as described [Morner et al.]. Cell-free supernatants from PBMC, Ghost X4/R5 and CEM X4/R5 cultures were used to monitor infectivity by the reverse transcriptase (RT) assay [Quinones-Mateu et al.]. The 50% inhibitory concentration (IC50) of each hBD was determined using X4 or R5 HIV-1 isolates. Viruses (0.01 MOI) were incubated with increasing concentrations of hBD-1, -2, and 3 (up to 40 µg/ml) in low salt medium for 1 h and used to infect CEM X4/R5 cells. After 2 h incubation at 37° C., 5% CO2, cells were washed twice with PBS and cultured in complete medium. Supernatant samples were removed on day 5 post-infection and virus production was measured using […] the RT assay [Id.]. Cytotoxicity of hBD was quantified by determining the number of viable cells using a tetrazolium-based colorimetric (MTT) assay [Pauwels et al.].
(§6) Since the antibacterial activity of beta-defensins is sensitive to high salt and serum concentrations, the anti-HIV-1 activity of hBD was initially evaluated in a low salt, serum free environment, mimicking oral mucosal conditions [Mandel et al.]. Two HIV-1 isolates (X4 B-HXB2 and R5 B-93US142) were preincubated for 1 h with increasing concentrations of recombinant hBD-1, -2, and -3, in 10 mM phosphate buffer (PB). GHOST CCR5/CXCR4 cells were then exposed to the mixtures for 48 h in complete medium. […] When CXCR4- and CCR5-tropic HIV-1 strains were preincubated with beta-defensins in high salt medium (DMEM) supplemented with 10% FBS, no antiviral effect was detected (FIG. 4d). However, preincubation in DMEM without FBS inhibited replication of X4, but not R5, HIV-1 isolates (FIG. 4d). Under low salt conditions (i.e., 10 mM PB, no FBS) the 50% inhibitory concentration for both agents against X4 and R5 viruses ranged from 9 to 19 μg/ml and 20 to 40 μg/ml, respectively.

HIV-1 X4 B-HXB2 = assay type: cell-based
Method: as §4, §5, §6

CCR5 = CCR5 (Homo sapiens, UniProt P51681); experiment: Flow cytometric analysis of co-receptor surface expression on unstimulated PBMC; assay type: cell-based; design: endogenous in cells; host or cells: unstimulated peripheral blood mononuclear cells (PBMC); conditions: 30 μg/ml, 3 h, high salt medium without FBS
Method: (§7) Unstimulated PBMC were treated for 3 hrs with hBD-1, -2, or -3 (30 μg/ml) in DMEM (high salt) in the absence of FBS. The CXCR4 natural ligand SDF-1AE (2 μg/ml) and the CCR5 antagonist PSC-RANTES (100 nM) were used as positive controls. CXCR4 and CCR5 surface expression was calculated using known ratios of QuantiBRITE-PE beads (Becton Dickenson) by flow cytometry. Results are the means of seven experiments±SD.
(§8) Unstimulated PBMC were treated with 30 μg/ml hBD-1, -2, or -3 in high salt medium (RPMI-1640) in the absence of FBS, 3 h. The CXCR4 natural ligand SDF-1α (R&D Systems, Minneapolis, Minn., USA) and the CCR5 antagonist PSC-RANTES were used as controls. Cells were incubated with peridinin chlorophyll protein-conjugated anti-human CD4 antibody, and either phycoerythrin (PE)-conjugated anti-human CXCR4 antibody, PE-conjugated anti-human CCR5 antibody, or PE-conjugated mouse immunoglobulin G2a (IgG2a), isotype standard (PharmMingen, San Diego, Calif., USA) [Salkowitz et al.]. Fluorescence intensity was reported as receptor density by quantitative flow cytometry (FACSCaliber; Becton Dickenson, San Jose, Calif., USA) [Iyer et al.]. Data were analyzed using CELLQuest software (Becton Dickenson).
(§9) Surface expression of CXCR4 was decreased by 51%±18% and 52%±20% (SD) respectively after incubation with 30 μg/ml of hBD-2 or hBD-3 (FIG. 5).

CXCR4 = CXCR4 (Homo sapiens, UniProt P61073); experiment: as above; assay type: cell-based; design: endogenous in cells; host or cells: unstimulated peripheral blood mononuclear cells (PBMC); conditions: 30 μg/ml, 3 h, high salt medium without FBS
Method: as §7, §8, §9

[6] = 20 μg/ml, preincubation in 10 mM PB
[7] = virus preincubated 1 h with hBD in 10 mM PB, GHOST cells 48 h, GFP fluorescence

Chain of CCR5 (P51681 whole entry): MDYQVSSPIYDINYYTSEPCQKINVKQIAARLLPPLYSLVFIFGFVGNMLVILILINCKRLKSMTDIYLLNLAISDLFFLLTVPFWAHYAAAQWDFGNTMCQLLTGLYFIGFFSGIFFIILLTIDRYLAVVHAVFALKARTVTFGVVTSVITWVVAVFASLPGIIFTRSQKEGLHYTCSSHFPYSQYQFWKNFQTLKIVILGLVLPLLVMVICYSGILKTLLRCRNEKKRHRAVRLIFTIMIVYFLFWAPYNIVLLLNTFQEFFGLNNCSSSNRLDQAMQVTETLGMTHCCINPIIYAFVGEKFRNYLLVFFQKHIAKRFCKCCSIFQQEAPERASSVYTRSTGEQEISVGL
Chain of CXCR4 (P61073 whole entry): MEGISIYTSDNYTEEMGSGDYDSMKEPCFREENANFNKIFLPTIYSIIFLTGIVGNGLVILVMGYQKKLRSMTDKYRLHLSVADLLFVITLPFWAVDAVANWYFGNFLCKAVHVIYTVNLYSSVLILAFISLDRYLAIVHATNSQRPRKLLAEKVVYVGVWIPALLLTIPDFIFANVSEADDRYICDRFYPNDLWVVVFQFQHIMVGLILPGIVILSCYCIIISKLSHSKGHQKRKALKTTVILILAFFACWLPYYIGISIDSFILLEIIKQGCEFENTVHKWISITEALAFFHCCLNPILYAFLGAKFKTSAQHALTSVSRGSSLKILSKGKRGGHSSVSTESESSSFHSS

[Ca+2] [calcium]
HBD-2 mRNA expression (hBD-2 mRNA [1]): sufficient to induce | HBD-3 mRNA expression (hBD-3 mRNA [2]): sufficient to induce

CC[C@H](C)[C@H](N)C(=O)O [isoleucine-1]
transcription of epithelial beta defensin genes [3]: can activate transcription

CCCCCCCCCCCCCC(=O)O[C@@H]1[C@@H](C)[C@@]2(O)[C@@H](C=C(CO)C[C@]3(O)C(=O)C(C)=C[C@@H]23)[C@@H]2C(C)(C)[C@]12OC(C)=O [phorbol myristate acetate]
HBD-1 mRNA expression (hBD-1 mRNA): not | HBD-2 mRNA expression (hBD-2 mRNA [4]): induces | HBD-3 mRNA expression (hBD-3 mRNA [5]): induces

GIGDPVTCLKSGAICHPVFCPRRYKQIGTCGLPGTKCCKKP (disulfide 8-37, 15-30, 20-38) [hBD-2]
inhibition (RT activity relative to positive control) (HIV-1 R5 B-93US142; [6]): 15% | inhibition (RT activity relative to positive control) (HIV-1 X4 B-HXB2; [6]): 61%

hBD-1: Recombinant human β-defensin 1 produced from infection of Sf21 cells with baculovirus constructs (DHYNCVSSGGQCLYSACPIFTKIQGTCYRGKAKCCK; ends and bridges not checked; cysteine pairing not given here; UniProt P60022 33-68, looked up)
anti-HIV-1 activity (HIV-1 R5 B-93US142; [7]): no effect | anti-HIV-1 activity (HIV-1 X4 B-HXB2; [7]): no effect | effect on CCR5 expression (CCR5): not altered | effect on surface expression of CXCR4 (CXCR4): did not affect
